In ChEMBL document CHEMBL1157025, “Evaluation of aldose reductase inhibition and docking studies of 6'-nitro and 6',6''-dinitrorosmarinic acids” (Eur J Med Chem, 2010):

Molecular target: Aldo-keto reductase family 1 member B1 (Homo sapiens, UniProt P15121)
Assay: Inhibition of aldose reductase

SMILES	IC50 (read-out: IC50)	IC50
O=C(/C=C/c1ccc(O)c(O)c1)O[C@H](Cc1cc(O)c(O)cc1[N+](=O)[O-])C(=O)O	1840 nM	–
O=C(/C=C/c1cc(O)c(O)cc1[N+](=O)[O-])O[C@H](Cc1cc(O)c(O)cc1[N+](=O)[O-])C(=O)O	741 nM	–
O=C(/C=C/c1ccc(O)c(O)c1)O[C@H](Cc1ccc(O)c(O)c1)C(=O)O [ROSMARINIC ACID]	–	3910 nM
